In brackets after ≈: the same amount, converted by molar mass. Counter-ions that a name gives are not always drawn.

The nature of this data set: physchem.
What is called solubility is the dissolved amount per volume that the medium holds. Low values mean little dissolved substance, high ones much dissolved substance. `O=C(O)c1ccc2c3c1cccc3c(=O)n1c3ccccc3nc21` [STO-609, 7-oxo-7H-benzimidazo[2,1-a]benz[de]isoquinoline-3-carboxylic acid, reference compound]: the concentration in solution (solubility) came to 60 µg/mL (≈ 191 µM). Turning to `O=C(O)c1ccc(-c2ccncn2)cc1C1CCCC1` [compound 56, 2-Cyclopentyl-4-(pyrimidin-4-yl)benzoic Acid], the solubility was determined as 10.6 µg/mL (≈ 39.5 µM).

In turn, `O=C(O)c1ccc(-c2ccnc(Nc3ccccc3)n2)cc1C1CCCC1` [compound 62, 2-Cyclopentyl-4-(2-(phenylamino)pyrimidin-4-yl)benzoic Acid Hydrochloride] had a solubility of 19.4 µg/mL.

The values are drawn from publication PMC8365604 (Journal of Medicinal Chemistry, 2021).
